Results on 10 molecules are retold here after patent US7560106B2, “Rationally designed heparinases derived from heparinase I and II and methods of sequencing therewith” (Massachusetts Institute of Technology, priority 1998, dated 2009).

Series [1] concerns the target T1, heparinase II (Pedobacter heparinus, UniProt C6XZB6).
T1 sequence (C6XZB6 26-772): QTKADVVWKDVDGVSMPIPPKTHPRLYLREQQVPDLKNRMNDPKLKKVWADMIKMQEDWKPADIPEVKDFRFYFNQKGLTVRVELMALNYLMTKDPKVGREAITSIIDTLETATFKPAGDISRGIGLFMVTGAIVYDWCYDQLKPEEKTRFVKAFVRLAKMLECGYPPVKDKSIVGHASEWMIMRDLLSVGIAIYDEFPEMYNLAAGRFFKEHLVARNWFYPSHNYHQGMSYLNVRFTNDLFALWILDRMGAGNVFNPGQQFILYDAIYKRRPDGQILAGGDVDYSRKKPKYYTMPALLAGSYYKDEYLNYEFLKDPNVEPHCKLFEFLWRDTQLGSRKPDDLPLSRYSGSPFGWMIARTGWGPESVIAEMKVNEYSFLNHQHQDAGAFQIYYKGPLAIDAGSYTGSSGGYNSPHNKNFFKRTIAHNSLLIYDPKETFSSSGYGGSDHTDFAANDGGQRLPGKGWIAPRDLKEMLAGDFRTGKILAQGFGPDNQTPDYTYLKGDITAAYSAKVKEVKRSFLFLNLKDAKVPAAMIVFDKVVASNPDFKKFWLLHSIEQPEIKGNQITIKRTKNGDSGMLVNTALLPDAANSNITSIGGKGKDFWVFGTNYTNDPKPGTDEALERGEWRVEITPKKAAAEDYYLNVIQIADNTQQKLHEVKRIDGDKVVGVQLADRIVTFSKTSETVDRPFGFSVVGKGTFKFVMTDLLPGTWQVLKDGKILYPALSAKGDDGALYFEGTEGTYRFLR
The experiment in a line: 4-VP, NEM, IAA and IAM inactivation of heparinase II. Format: biochemical, Flavobacterium heparinum. Here is the method:
4-VP, NEM IAA, and AM Inactivation Heparinase II (100 μg/ml) was incubated with varying concentrations of either 4-VP, NEM, IAA or IAM (Lundblad, R. L. (1995) Techniques in Protein Modification. pp. 63-91, CRC Press, Boca Raton). Aqueous stock solutions ([…]) of each reagent was prepared immediately before use. For NEM and 4-VP the concentrations of modifying reagent were varied from 0.2-2 mM. In the case of IAA or IAM, the concentrations of the reagent ranged from 1-10 mM. All reactions were conducted in 50 mM sodium-phosphate buffer, pH 7.0, at room temperature. The time course of inactivation was monitored in each case, time courses for each of the reagents were compared using either heparin or heparan sulfate as the substrate.

In series [2] the target is T1, heparinase II. The experiment in a line: DTNB modification and inactivation of heparinase II. Format: biochemical, Flavobacterium heparinum. From the text: Heparinase II Activity Assay. Native heparinase II from Flavobacterium heparinum, was purified as described previously (Godavarti, R., and Sasisekharan, R (1996c) Biochem. Biophys. Res. Comm. 229, 770-777). The UV 232 nm assay to quantify native heparinase II enzymatic activity was similar to that reported for heparinase I (Bernstein, H., Yang, V. C., Cooney, C. L., Langer, R. (1988) Meth. Enzym. 137, 515-29). Briefly, the course of the reaction is monitored by measuring the increase in absorbance at 232 nm as a function of time under saturating substrate concentrations. With heparin as the substrate, the reaction was carried out at a concentration of 4 mg/ml in 50 mM sodium phosphate buffer, pH 7.3. With 2 mg/ml heparan sulfate, the reaction was measured in 50 mM sodium phosphate buffer, pH 6.9 (Sasisekharan, R., Moses, M. A., Nugent, M. A., Cooney, C. L., Langer, R. (1994) Proc. Natl. Acad. Sci., USA 91, 1524-1528). The temperature for all enzymatic activity measurements was kept constant at 35° C.
DTNB Modification Studies. (A) Inactivation with DTNB. Heparinase II (100 μg/ml) was incubated with DTNB (0.1-0.5 mM). A DTNB stock solution was made by dissolving DTNB in ethanol and an aliquot was added to the reaction mixture (Lundblad, R. L. (1995) Techniques in Protein Modification. pp. 63-91, CRC Press, Boca Raton).
(B) Quantification of DTNB—modified residues of heparinase II. Quantification of DTNB-modified heparinase II residues was determined by difference spectra. At time zero, 2 mM DTNB was added to the sample cuvette containing heparinase II (825 μg/ml) in sodium phosphate buffer, pH 7.0. The change in absorbance at 410 nm was monitored every. 30 seconds for 10 minutes. To account for the decomposition of DTNB in the reaction mixture, a control was also done by monitoring the change in absorbance at 410 nm with only DTNB (2 mM) in 50 mM sodium phosphate buffer, pH 7.0. Heparinase II activity assays were also performed on the reaction mixture. The number of heparinase II cysteine residues modified was determined using ∈=13,600 M cm^−1 (Lundblad, R. L. (1995) Techniques in Protein Modification. pp. 63-91, CRC Press, Boca Raton). A similar experiment was completed after preincubating the enzyme with heparin for 30 minutes.

In series [3] the target is T2, heparinase I (Pedobacter heparinus, UniProt Q05819). Nature of the series: Effect of lanthanides on heparinase I activity (232 nm assay). It counts as biochemical, Flavobacterium heparinum. Conditions: 15 minutes preincubation; 4 mg/mL heparin, 5 mM calcium, pH 6.5.
Series [4] addresses T2, heparinase I. It counts as biochemical, Flavobacterium heparinum. To be noted: 30 minutes preincubation, 50 μM WRK, pH 7.
Series [5] has as its target T2, heparinase I. It counts as binding, Flavobacterium heparinum.
A short description of series [6]: Exhaustive digest and HPLC analysis of saccharide products of heparinase II and mutants, heparin substrate. To be noted: exhaustive digest 18 hours at 30° C.
Procedure: HPLC Analysis of Saccharide Products of Heparinase II Activity. Heparin or heparan sulfate was degraded by heparinase II or one of the recombinant heparinases for 18 h at 30° C. The reaction was stopped by boiling and the samples were injected onto a POROS Q/M (4.6×100 mm) anion-exchange column connected to a BIOCAD system (PerSeptive Biosystems, Framingham, Mass.) (Godavarti, R., and Sasisekharan, R (1996c) Biochem. Biophys. Res. Comm. 229, 770-777). A salt gradient of 0-2 M NaCI in 10 mM Tris pH 7.0 was run and products were monitored at 232 nm.
Exhaustive digests of both 4 mg/ml heparin and 2 mg/ml heparan sulfate were completed and the resulting products analyzed with a Perfusion Chromatography system in a fashion similar to the analysis completed for heparinase I (Godavarti, R., and Sasisekharan, R (1996c) Biochem. Biophys. Res. Comm. 229, 770-777). Running buffer used as 10 mM Tris, pH 7.0 and the salt gradient was 0-2 M NaCl over the course of ten minutes.
After purification, each of these four wild-type and mutant enzymes was characterized via exhaustive (i.e., 18 hours at 30° C.) substrate digests to determine product profiles. Perfusion chromatography profiles of the desaccharide products of the three cysteine mutants and the r-heparinase II were analyzed using either heparin and heparan sulfate as the substrate.
Series [7] in a line: Processivity of heparinase I on heparin. It counts as biochemical.
Series [8] in a line: Heparinase I activity as a function of calcium concentration (K0.5, calcium dependence). Format: biochemical. In outline:
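Heparinase I mutant activity was measured by UV absorbance at 232 nm in 100 mM MOPS, pH 7.0, with calcium varied from 0 to 10 mM. Activity is given as IU (μmol product/min) using ε=−3800 M^−1cm^−1.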

For series [9] the following is noted: absence of calcium; shown previously; cited from earlier work.
The mark [10] stands for this setting: 2 mM DTNB, 10 minutes, enzyme preincubated with heparin.
Setting [11] is: 2 mM DTNB, 10 minutes, without heparin preincubation.

In the case of `C=Cc1ccncc1` [4-VP, 4-vinylpyridine], the “inhibition of heparinase II activity, in words” value (“inhibition” below) in series [1] was “inhibited heparinase II activity in a dose-dependent fashion”.

With `O=C(O)c1cc(SSc2ccc([N+](=O)[O-])c(C(=O)O)c2)ccc1[N+](=O)[O-]` [DTNB, 5,5′-dithiobis-(2-nitrobenzoic acid)], in series [2] (setting [10]), the loss of activity is on record as 25% and the “number of cysteines modified” value turned out to be 1.3 cysteines. For the same molecule, in [2] (setting [11]), the “loss of initial activity” value worked out at 80% and the “number of cysteines modified” value was determined as 2.4 cysteines. Further, the kinact/KI in series [2] (DTNB 0-0.5 mM, read-out: second-order rate constant of inactivation (converted)) is 10.2 M⁻¹ s⁻¹.

As for `O=C(O)CI` [IAA, iodoacetic acid], the “inhibition” value in series [1] is recorded as “least effective”.

As usually defined, the IC50 is the midpoint of a concentration-inhibition curve. As to `[Lu+3]` [Lu^3+, lutetium], the IC50 in series [3] is 212 µM.

For the molecule `CCN1C(=O)C=CC1=O` [NEM, N-ethylmaleimide], the “inhibition” value in [1] is recorded as “inhibited heparinase II activity in a dose-dependent fashion”.

In the case of `[Ca+2]` [calcium], the “K0.5 of protection from WRK-mediated inactivation” value in series [4] was found to be 980 µM. For the same molecule, the “calcium concentration sufficient to compete with terbium for binding to heparinase I” value in series [5] is 2 mM.

On to `[Tb+3]` [terbium], for which, in series [5], the “terbium equivalents at which fluorescence intensity stops increasing” value amounted to 10 equivalents. The IC50 in [3] was 39 µM.

B1: C189A: heparinase II cysteine to alanine mutant at position 189 (protein, UniProt C6XZB6 26-772, looked up, variant C189A)
Heparin and heparin-sulfate …: QTKADVVWKDVDGVSMPIPPKTHPRLYLREQQVPDLKNRMNDPKLKKVWADMIKMQEDWKPADIPEVKDFRFYFNQKGLTVRVELMALNYLMTKDPKVGREAITSIIDTLETATFKPAGDISRGIGLFMVTGAIVYDWCYDQLKPEEKTRFVKAFVRLAKMLEAGYPPVKDKSIVGHASEWMIMRDLLSVGIAIYDEFPEMYNLAAGRFFKEHLVARNWFYPSHNYHQGMSYLNVRFTNDLFALWILDRMGAGNVFNPGQQFILYDAIYKRRPDGQILAGGDVDYSRKKPKYYTMPALLAGSYYKDEYLNYEFLKDPNVEPHCKLFEFLWRDTQLGSRKPDDLPLSRYSGSPFGWMIARTGWGPESVIAEMKVNEYSFLNHQHQDAGAFQIYYKGPLAIDAGSYTGSSGGYNSPHNKNFFKRTIAHNSLLIYDPKETFSSSGYGGSDHTDFAANDGGQRLPGKGWIAPRDLKEMLAGDFRTGKILAQGFGPDNQTPDYTYLKGDITAAYSAKVKEVKRSFLFLNLKDAKVPAAMIVFDKVVASNPDFKKFWLLHSIEQPEIKGNQITIKRTKNGDSGMLVNTALLPDAANSNITSIGGKGKDFWVFGTNYTNDPKPGTDEALERGEWRVEITPKKAAAEDYYLNVIQIADNTQQKLHEVKRIDGDKVVGVQLADRIVTFSKTSETVDRPFGFSVVGKGTFKFVMTDLLPGTWQVLKDGKILYPALSAKGDDGALYFEGTEGTYRFLR
As to B1, in [6], the “degradation product profile, heparin substrate” value was “closely matched those of both r-heparinase II and native heparinase II”.

B2: C348A: heparinase II cysteine to alanine mutant at position 348 (protein, UniProt C6XZB6 26-772, looked up, variant C348A)
Heparin and heparin-sulfate …: QTKADVVWKDVDGVSMPIPPKTHPRLYLREQQVPDLKNRMNDPKLKKVWADMIKMQEDWKPADIPEVKDFRFYFNQKGLTVRVELMALNYLMTKDPKVGREAITSIIDTLETATFKPAGDISRGIGLFMVTGAIVYDWCYDQLKPEEKTRFVKAFVRLAKMLECGYPPVKDKSIVGHASEWMIMRDLLSVGIAIYDEFPEMYNLAAGRFFKEHLVARNWFYPSHNYHQGMSYLNVRFTNDLFALWILDRMGAGNVFNPGQQFILYDAIYKRRPDGQILAGGDVDYSRKKPKYYTMPALLAGSYYKDEYLNYEFLKDPNVEPHAKLFEFLWRDTQLGSRKPDDLPLSRYSGSPFGWMIARTGWGPESVIAEMKVNEYSFLNHQHQDAGAFQIYYKGPLAIDAGSYTGSSGGYNSPHNKNFFKRTIAHNSLLIYDPKETFSSSGYGGSDHTDFAANDGGQRLPGKGWIAPRDLKEMLAGDFRTGKILAQGFGPDNQTPDYTYLKGDITAAYSAKVKEVKRSFLFLNLKDAKVPAAMIVFDKVVASNPDFKKFWLLHSIEQPEIKGNQITIKRTKNGDSGMLVNTALLPDAANSNITSIGGKGKDFWVFGTNYTNDPKPGTDEALERGEWRVEITPKKAAAEDYYLNVIQIADNTQQKLHEVKRIDGDKVVGVQLADRIVTFSKTSETVDRPFGFSVVGKGTFKFVMTDLLPGTWQVLKDGKILYPALSAKGDDGALYFEGTEGTYRFLR
modifications: heparinase II
In the case of B2, in [6], the “degradation product profile, heparin substrate” value is “completely inactive”.

B3: heparinase I: 42,500 Da enzyme from the periplasm of F. heparinum that degrades heparin-like glycosaminoglycans (protein, listed as Flavobacterium heparinum)
chain: MKKQILYLIVLQQLFLCSAYAQQKKSGNIPYRVNVQADSAKQKAIIDNKWVAVGINKPYALQYDDKLRFNGKPSYRFELKAEDNSLEGYAAGETKGRTELSYSYATTNDFKKFPPSVYQNAQKLKTVYHYGKGICEQGSSRSYTFSVYIPSSFPDNATTIFAQWHGAPSRTLVATPEGEIKTLSIEEFLALYDRMIFKKNIAHDKVEKKDKDGKITYVAGKPNGWKVEQGGYPTLAFGFSKGYFYIKANSDRQWLTDKADRNNANPENSEVMKPYSSEYKTSTIAYKMPFAQFPKDCWITFDVAIDWTKYGKEANTILKPGKLDVMMTYTKNKKPQKAHIVNQQEILIGRNDDDGYYFKFGIYRVGNSTVPVTYNLSGYSETAR
Molecule B3 showed a processivity in series [7] of approximately 90%. In [8], the “activity in 2 mm Ca++ relative to absence of calcium” value was approximately 10 × and the “increase in activity upon introduction of millimolar concentrations of calcium” value was “five-fold increase in activity”. The “salt concentration of elution from heparin-POROS column” value in [9] is “around 500 mM”.
